The first test concerns m-IMCD3 cells. Nature of the test: Inhibition of PGE2-stimulated in vitro cyst formation in m-IMCD3 cells. Type of test: cell-based, mouse. The following applies: 3 μM; mean cyst area, 100% for (DMSO + PGE2) and 0% for DMSO control; 6 days of culture. In short, it runs like this:
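Mean cyst area after 6 days, expressed relative to DMSO+PGE2 (100%) and DMSO alone (0%), from z-stack images. Mouse m-IMCD3 spheroids grew in collagen I/Matrigel gels and received PGE2 (100 nM final) with test compound (0.1% DMSO) starting 18–24 h post-plating, media refreshed at day 2 or 3.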
As for `CC(C(=O)N1CCc2nc(N3C4CCC3CNC4)sc2C1)C(C)(C)C` (single isomer, unassigned) [Example 159, 1-(2-(3,8-diazabicyclo[3.2.1]octan-8-yl)-6,7-dihydrothiazolo[5,4-c]pyridin-5(4H)-yl)-2,3,3-trimethylbutan-1-one], the “% Cyst area after incubation with 3 μM test compound” value was 0%.

The test is the same for the next values; noted with them: Mus musculus, mIMCD3, 144 h, 3 μM; mean cyst area, 100% for (DMSO + PGE2) and 0% for DMSO control; 6 days of culture; read-out: % Cyst area after incubation with 3 μM test compound.
For `O=C(C1Cc2ccccc2O1)N1CCc2nc(N3C4CCC3CNC4)sc2C1` (stereo not shown) [Example 179, (2-(3,8-diazabicyclo[3.2.1]octan-8-yl)-6,7-dihydrothiazolo[5,4-c]pyridin-5(4H)-yl)(2,3-dihydrobenzofuran-2-yl)methanone], the activity at 3 µM was determined as 2%.
Same read-out and setting: next, `O=C(c1ccc(C(F)F)cc1)N1CCc2nc(N3C4CCC3CNC4)sc2C1` [Example 229, (2-(3,8-diazabicyclo[3.2.1]octan-8-yl)-6,7-dihydrothiazolo[5,4-c]pyridin-5(4H)-yl)(4-(difluoromethyl)phenyl)methanone]: -1%.
On the same count and under the same terms, with `O=C(c1nccc2ccccc12)N1CCc2nc(N3C4CCC3CNC4)sc2C1` [Example 186, (2-(3,8-diazabicyclo[3.2.1]octan-8-yl)-6,7-dihydrothiazolo[5,4-c]pyridin-5(4H)-yl)(isoquinolin-1-yl)methanone] the figure was 0%; with `O=C(c1cccc2c1OCCC2)N1CCc2nc(N3C4CCC3CNC4)sc2C1` [Example 217, (2-(3,8-diazabicyclo[3.2.1]octan-8-yl)-6,7-dihydrothiazolo[5,4-c]pyridin-5(4H)-yl)(chroman-8-yl)methanone], -3%; with `CCN1CCN(c2nc3c(s2)CN(C(=O)CC(C)(C)C)CC3)CC1` [Example 299, 1-(2-(4-ethylpiperazin-1-yl)-6,7-dihydrothiazolo[5,4-c]pyridin-5(4H)-yl)-3,3-dimethylbutan-1-one], 3%.
Still for that read-out and setting: next, `CN1CC2CCC(C1)N2c1nc2c(s1)CN(C(=O)COc1ccc(F)cc1)CC2` [Example 301, 2-(4-fluorophenoxy)-1-(2-(3-methyl-3,8-diazabicyclo[3.2.1]octan-8-yl)-6,7-dihydrothiazolo[5,4-c]pyridin-5(4H)-yl)ethan-1-one]: -6%.
Turning to `O=C(C1CC12CCCC2)N1CCc2nc(N3C4CCC3CNC4)sc2C1` (stereo not shown) [Example 162, (2-(3,8-diazabicyclo[3.2.1]octan-8-yl)-6,7-dihydrothiazolo[5,4-c]pyridin-5(4H)-yl)(spiro[2.4]heptan-1-yl)methanone], the activity at 3 µM was 14%.
Same read-out and setting: next, `O=C(c1ccccn1)N1CCc2nc(N3C4CCC3CNC4)sc2C1` [Example 201, (2-(3,8-diazabicyclo[3.2.1]octan-8-yl)-6,7-dihydrothiazolo[5,4-c]pyridin-5(4H)-yl)(pyridin-2-yl)methanone]: 17%; `CCN1CC2CCC(C1)N2c1nc2c(s1)CN(S(=O)(=O)Cc1ccccc1)CC2` [Example 289, 5-(benzylsulfonyl)-2-(3-ethyl-3,8-diazabicyclo[3.2.1]octan-8-yl)-4,5,6,7-tetrahydrothiazolo[5,4-c]pyridine]: -7%; `COCCOc1ccccc1OCC(=O)N1CCc2nc(N3C4CCC3CNC4)sc2C1` [Example 129, 1-(2-(3,8-diazabicyclo[3.2.1]octan-8-yl)-6,7-dihydrothiazolo[5,4-c]pyridin-5(4H)-yl)-2-(2-(2-methoxyethoxy)phenoxy)ethan-1-one]: 3%.
On the same count and under the same terms, with `O=C(c1ccc(CC(F)(F)F)cc1)N1CCc2nc(N3C4CCC3CNC4)sc2C1` [Example 232, (2-(3,8-diazabicyclo[3.2.1]octan-8-yl)-6,7-dihydrothiazolo[5,4-c]pyridin-5(4H)-yl)(4-(2,2,2-trifluoroethyl)phenyl)methanone] the figure was 5%; with `O=C(CC1CCCC1)N1CCc2nc(N3CCN4CCC[C@@H]4C3)sc2C1` [Example 272, (R)-2-cyclopentyl-1-(2-(hexahydropyrrolo[1,2-a]pyrazin-2(1H)-yl)-6,7-dihydrothiazolo[5,4-c]pyridin-5(4H)-yl)ethan-1-one], 16%.
The same measure, in the same setting: with `COCc1ccccc1C(=O)N1CCc2nc(N3C4CCC3CNC4)sc2C1` [Example 214, (2-(3,8-diazabicyclo[3.2.1]octan-8-yl)-6,7-dihydrothiazolo[5,4-c]pyridin-5(4H)-yl)(2-(methoxymethyl)phenyl)methanone] the figure was 54%.

The test is the same for the next values; noted with them: Mus musculus, mIMCD3, 144 h, 10 μM; mean cyst area, 100% for (DMSO + PGE2) and 0% for DMSO control; 6 days of culture; read-out: % Cyst area after incubation with 10 μM test compound.
In the case of `COc1cc(F)ccc1OCC(=O)N1CCc2nc(N3C4CCC3CNC4)sc2C1` [Example 143, 1-(2-(3,8-diazabicyclo[3.2.1]octan-8-yl)-6,7-dihydrothiazolo[5,4-c]pyridin-5(4H)-yl)-2-(4-fluoro-2-methoxyphenoxy)ethan-1-one], the activity at 10 µM stood at 2%.
Same read-out and setting: next, `O=C(Cc1ccc(F)cc1)N1CCc2nc(N3C4CCC3CNC4)sc2C1` [Example 25, 1-(2-(3,8-diazabicyclo[3.2.1]octan-8-yl)-6,7-dihydrothiazolo[5,4-c]pyridin-5(4H)-yl)-2-(4-fluorophenyl)ethan-1-one]: 6%; `O=C(N1CCc2nc(N3C4CCC3CNC4)sc2C1)C1(F)CCCC1` [Example 151, (2-(3,8-diazabicyclo[3.2.1]octan-8-yl)-6,7-dihydrothiazolo[5,4-c]pyridin-5(4H)-yl)(1-fluorocyclopentyl)methanone]: 5%.
Still for that read-out and setting: with `O=C(CC1CCC(F)(F)CC1)N1CCc2nc(N3C4CCC3CNC4)sc2C1` [Example 2, 1-(2-(3,8-diazabicyclo[3.2.1]octan-8-yl)-6,7-dihydrothiazolo[5,4-c]pyridin-5(4H)-yl)-2-(4,4-difluorocyclohexyl)ethan-1-one] the figure was 2%.
On the same count and under the same terms, next, `O=C(NC1CCC(F)(F)CC1)N1CCn2nc(N3C4CCC3CNC4)cc2C1` [Example 70, 2-(3,8-diazabicyclo[3.2.1]octan-8-yl)-N-(4,4-difluorocyclohexyl)-6,7-dihydropyrazolo[1,5-a]pyrazine-5(4H)-carboxamide]: 7%.
Take `O=C(COc1ccnc(F)c1)N1CCc2nc(N3C4CCC3CNC4)sc2C1` [Example 73, 1-(2-(3,8-diazabicyclo[3.2.1]octan-8-yl)-6,7-dihydrothiazolo[5,4-c]pyridin-5(4H)-yl)-2-((2-fluoropyridin-4-yl)oxy)ethan-1-one]: the activity at 10 µM was found to be 3%.
Turning to `CN1CC2CCC(C1)N2c1nc2c(s1)CN(C(=O)CC1CCC(F)(F)CC1)CC2(C)C` [Example 103, 2-(4,4-difluorocyclohexyl)-1-(7,7-dimethyl-2-(3-methyl-3,8-diazabicyclo[3.2.1]octan-8-yl)-6,7-dihydrothiazolo[5,4-c]pyridin-5(4H)-yl)ethan-1-one], the activity at 10 µM was -1%.
On the same count and under the same terms, with `O=C(CC1CCC(F)(F)CC1)N1CCn2nc(N3C4CCC3CNC4)cc2C1` [Example 71, 1-(2-(3,8-diazabicyclo[3.2.1]octan-8-yl)-6,7-dihydropyrazolo[1,5-a]pyrazin-5(4H)-yl)-2-(4,4-difluorocyclohexyl)ethan-1-one] the figure was -3%; with `CC1(NC(=O)N2CCc3nc(N4C5CCC4CNC5)sc3C2)CCC1` [Example 124, 2-(3,8-diazabicyclo[3.2.1]octan-8-yl)-N-(1-methylcyclobutyl)-6,7-dihydrothiazolo[5,4-c]pyridine-5(4H)-carboxamide], -12%; with `O=C(N1CCc2nc(N3C4CCC3CNC4)sc2C1)N1CCC2(CCC2)C1` [Example 123, (2-(3,8-diazabicyclo[3.2.1]octan-8-yl)-6,7-dihydrothiazolo[5,4-c]pyridin-5(4H)-yl)(6-azaspiro[3.4]octan-6-yl)methanone], -4%.
On the same count and under the same terms, with `O=C(CC1CCC(F)(F)CC1)N1CCn2nc(N3C4CCC3CNC4)nc2C1` [Example 97, 1-(2-(3,8-diazabicyclo[3.2.1]octan-8-yl)-5,6-dihydro-[1,2,4]triazolo[1,5-a]pyrazin-7 (8H)-yl)-2-(4,4-difluorocyclohexyl)ethan-1-one] the figure was 6%.
Same read-out and setting: next, `CC1(C)CC(CC(=O)N2CCc3nc(N4C5CCC4CNC5)sc3C2)C1` [Example 119, 1-(2-(3,8-diazabicyclo[3.2.1]octan-8-yl)-6,7-dihydrothiazolo[5,4-c]pyridin-5(4H)-yl)-2-(3,3-dimethylcyclobutyl)ethan-1-one]: -10%; `CC1(C)CN(C(=O)CC2CCC(F)(F)CC2)Cc2sc(N3C4CCC3CNC4)nc21` [Example 98, 1-(2-(3,8-diazabicyclo[3.2.1]octan-8-yl)-7,7-dimethyl-6,7-dihydrothiazolo[5,4-c]pyridin-5(4H)-yl)-2-(4,4-difluorocyclohexyl)ethan-1-one]: 3%.
For the compound `O=C(C1CCCC1)N1CCc2nc(N3C4CCC3CNC4)sc2C1` [Example 22, (2-(3,8-diazabicyclo[3.2.1]octan-8-yl)-6,7-dihydrothiazolo[5,4-c]pyridin-5(4H)-yl)(cyclopentyl)methanone], the activity at 10 µM was -2%.
Still for that read-out and setting: next, `O=C(COc1ccc(F)cc1)N1CCc2nc(N3CCNCC3)sc2C1` [Example 110, 2-(4-fluorophenoxy)-1-(2-(piperazin-1-yl)-6,7-dihydrothiazolo[5,4-c]pyridin-5(4H)-yl)ethan-1-one]: -5%; `O=C(CC1CCC(F)(F)C1)N1CCc2nc(N3C4CCC3CNC4)sc2C1` (stereo not shown) [Example 137, 1-(2-(3,8-diazabicyclo[3.2.1]octan-8-yl)-6,7-dihydrothiazolo[5,4-c]pyridin-5(4H)-yl)-2-(3,3-difluorocyclopentyl)ethan-1-one]: -4%.
On the same count and under the same terms, with `O=C(COc1ccc(F)cc1)N1CCc2nc(N3C4CCC3CNC4)sc2C1` [Example 21, 1-(2-(3,8-diazabicyclo[3.2.1]octan-8-yl)-6,7-dihydrothiazolo[5,4-c]pyridin-5(4H)-yl)-2-(4-fluorophenoxy)ethan-1-one] the figure was -1%.
